# Measured values reported in US20260256728A1, “TREATMENT FOR ASYMPTOMATIC STARGARDT DISEASE PATIENTS” (priority 2024, published 2026).
# Columns and labels:
# Assay type in all cases: in vivo, human
# [1] = tested on: asymptomatic Stargardt disease patients; assay: TEASE-3 photoreceptor loss (ellipsoid zone band loss) by optical coherence tomography
# Protocol: FIG. 5 is a graph showing retinal photoreceptor loss over time in three asymptomatic Stargardt disease patients taking gildeuretinol acetate 14 mg daily. Lines are piecewise linear regressions with a knot time of 6 months and show the mean area of retinal photoreceptor loss of both eyes. Each symbol represents the area of photoreceptor loss for one eye. To measure photoreceptor loss, the ellipsoid zone layer was evaluated on b-scans acquired on Heidelberg engineering optical coherence tomography (Heidelberg, Germany).
# (§1) The tolerability and effects of ALK-001 (gildeuretinol acetate) in Stargardt Disease (Clinical trial group 3, also known as TEASE-3) study was an open-label, multicenter, case control study designed to evaluate the efficacy and safety of gildeuretinol acetate on the progression of Stargardt disease in asymptomatic individuals. The trial was conducted at multiple sites in the United States.
# Patients received gildeuretinol acetate 14 mg capsules, to be taken orally once daily. Trial visits occurred every 6 months approximately following screening and treatment start visits.
# (§2) Disease progression was monitored by best-corrected visual acuity (BCVA) reported in number of Early Treatment Diabetic Retinopathy Study (ETDRS) letters, fundus autofluorescence (FAF) imaging, loss of photoreceptors (as measured by the ellipsoid zone band loss) by optical coherence tomography (OCT) and retinal sensitivity by microperimetry.
# Measurements from the left and right eye for each patient were averaged for each visit to produce a single statistical unit for both eyes. For segmented linear regressions, knot times were selected so that three visits were included in the first segment.
# [2] = TEASE-1 plasma gildeuretinol (replacement of plasma vitamin A); settings: for percentage of gildeuretinol over total vitamin A (as retinol+gildeuretinol): plasma, 8-week pharmacokinetic analysis
# Protocol: The Tolerability and Effects of gildeuretinol acetate in Stargardt Disease (Clinical trial group 1, also known as TEASE-1) was a 24-month, multicenter, double-masked, placebo-controlled trial designed to evaluate the efficacy and safety of daily oral gildeuretinol acetate in slowing the growth of atrophic retinal lesions in Stargardt disease patients. The trial was conducted at multiple sites in the United States (NCT02402660).
# Patients 12 years or older, clinically diagnosed with Stargardt disease, with at least one ABCA4 mutation, at least one eye presenting with well-demarcated areas of reduced fundus autofluorescence including retinal atrophic lesions, and with any visual acuity, were enrolled.
# Patients were randomized to gildeuretinol acetate 14 mg capsules, gildeuretinol acetate 24 mg capsules, or placebo capsules, to be taken once daily for one year. After one year, 50% of randomly selected patients receiving placebo were crossed over in a 1:1 ratio to gildeuretinol acetate 14 mg capsules or gildeuretinol acetate 24 mg capsules for a second year.
# Gildeuretinol acetate and placebo capsules were identical appearing capsules. Patients were advised to avoid vitamin A-containing supplements and liver-based products. Fruits and vegetables could be consumed without limitation. Trial visits occurred at 8 weeks and 6, 12, 18, and 24 months following screening and randomization.
# [3] = tested on: asymptomatic Stargardt disease patients; assay: TEASE-3 retinal sensitivity by fundus-tracking microperimetry
# Protocol: FIG. 4 is a graph showing mean retinal sensitivity (dB) over time in three asymptomatic Stargardt disease patients taking gildeuretinol acetate 14 mg daily. Lines show mean retinal sensitivity of both eyes. Lines are piecewise linear regressions with a knot time of 12 months. Each symbol represents a retinal sensitivity measurement for each eye. Patient 1 retinal sensitivity was measured with a Nidek MP-1 (Nidek, Gamagori, Japan). Patients 2 and 3 retinal sensitivity was measured with the Center Vue Macular Integrity Assessment or MAIA (CenterVue, Padova, Italy).
# as §1
# Patients received gildeuretinol acetate 14 mg capsules, to be taken orally once daily. […]
# as §2, with “microperimetry. […]” for “microperimetry.”
compound,measurement,setting,value
[2H]C([2H])([2H])C(/C=C/C=C(C)/C=C/C1=C(C)CCCC1(C)C)=C\COC(C)=O [gildeuretinol acetate],progression of photoreceptor loss,"[1]; first six months of treatment, average of two treated patients",approximately 0.18 mm^2/year
same,photoreceptor loss trend,[1]; following years of treatment,trended toward an improvement
same,"photoreceptor loss, third patient",[1]; full treatment period,no photoreceptors were lost
same,average area of photoreceptor loss,[1]; in vivo,0.36±0.32 mm^2
same,average area of photoreceptor loss as share of the foveal area,[1]; in vivo,20%
same,replacement of plasma vitamin A sustained throughout the treatment period,"[2]; 14 or 24 mg daily, 24 months",greater than 80%
same,patients in whom over 80% of plasma vitamin A was replaced,[2]; after six months,39 out of 40
same,serum vitamin A replaced with gildeuretinol,"[2]; daily doses approximately 14 to 24 mg, within a matter of weeks",more than 80%
same,total plasma vitamin A and retinoic acid (combined vitamin A and gildeuretinol-derived forms) versus placebo group,[2]; in vivo,the same
same,percentage of gildeuretinol over total vitamin A (as retinol+gildeuretinol),[2]; 14 mg cohort,87%
same,percentage of gildeuretinol over total vitamin A (as retinol+gildeuretinol),[2]; 24 mg cohort,92%
same,change of mean retinal sensitivity,[3]; first year of treatment,−3.1±1.5 dB/year
same,average rate of retinal sensitivity improvement,[3]; following years of treatment,+0.93±0.7 dB/year
